This assay concerns the target T1, HIV-Protease (Human immunodeficiency virus type 1 group M subtype B, UniProt P04585).
T1 construct: Gereinigte HIV-Protease wurde mit synthetischem Peptid
Description: HIV-specific protease enzyme test (purified HIV protease incubated with synthetic Gag cleavage-site peptide, cleavage products analysed by RP-HPLC). Format: biochemical. The following applies: for inhibition at 240 µg/mL: read-out: % Inhibition bei 240 µg/ml; for IC50: substance concentration causing 50% inhibition of protease activity, read-out: IC₅₀. From the text:
Darüber hinaus wurde überraschend gefunden, daß die Verbindungen der allgemeinen Formel (I) eine außerordentlich starke Wirkung gegen Retroviren besitzen. Dies wird mit einem HIV-spezifischen Protease-Enzymtest belegt.
Die Ergebnisse der unten aufgeführten Beispiele wurden nach dem in den folgenden Literaturangaben [vgl. Hansen, J., Billich, S., Schulze, T., Sukrow, S. and Mölling, K. (1988), EMBO Journal, Vol, 7, No. 6, pp. 1785 - 1791] beschriebenen HIV-Testsystem ermittelt: Gereinigte HIV-Protease wurde mit synthetischem Peptid, das eine Schnittstelle im Gag-Precursor-Protein imitiert und eine in vivo-Spaltstelle der HIV-Protease darstellt, inkubiert Die entstandenen Spaltprodukte des synthetischen Peptids wurden über Reverse Phase High Performance Liquid Chromatography (RP-HPLC) analysiert. Die angegebenen IC₅₀-Werte beziehen sich auf die Substanzkonzentration, die unter den oben aufgeführten Testbedingungen eine 50%ige Hemmung der Protease-Aktivität bewirkt. Tabelle 1

The structures appear in SMILES notation.

For `CC(CN1CCN(CCCC(c2ccc(F)cc2)c2ccc(F)cc2)CC1)Oc1ccc(F)cc1F` (racemic) [Beispiel 10, 1-[4,4-Bis-(4-fluorphenyl)butyl]-4-[(R/S)-2-(2,4-difluorphenoxy)propyl]piperazin], the inhibition at 240 µg/mL was 77% and the IC50 was 4800 nM.
`Cc1cccc(OC(C)CN2CCN(CCCC(c3ccc(F)cc3)c3ccc(F)cc3)CC2)c1C` (racemic) [Beispiel 37]: the inhibition at 240 µg/mL was found to be 61%.
For the compound `CC(CN1CCN(CCCC(c2ccc(F)cc2)c2ccc(F)cc2)CC1)Oc1ccc(C(F)(F)F)cc1` (racemic) [Beispiel 40], the inhibition at 240 µg/mL was 84%.
Regarding `CN(C)c1ccccc1OCCN1CCN(CCCC(c2ccc(F)cc2)c2ccc(F)cc2)CC1` [Beispiel 3, 1-[4,4-Bis-(4-fluorphenyl)butyl]-4-[2-(2-N,N-dimethylaminophenoxy)ethyl]piperazin], the inhibition at 240 µg/mL was 76%.
Take `C[C@H]1CN(CCOc2ccc(F)cc2F)CCN1CCCC(c1ccc(F)cc1)c1ccc(F)cc1` [Beispiel 13, (S)-1-[4,4-Bis-(4-fluorphenyl)butyl]-2-methyl-4-[2-(2,4-difluorphenoxy)ethyl]piperazin]: the inhibition at 240 µg/mL is 91% and the IC50 was determined as 480 nM.
As for `C[C@H]1CN(CCCC(c2ccc(F)cc2)c2ccc(F)cc2)CCN1CCOc1ccc(F)cc1F` [Beispiel 14, (S)-4-[4,4-Bis-(4-fluorphenyl)butyl]-2-methyl-1-[2-(2,4-difluorphenoxy)ethyl]piperazin], the inhibition at 240 µg/mL is 99% and the IC50 worked out at 1100 nM.
In the same order, the values of `Fc1ccc(C(CCCN2CCN(CCOc3ccc(F)cc3F)CC2)c2ccc(F)cc2)cc1` [Beispiel 15] are 92% and 400 nM.
On to `Cc1cccc(OCCN2CCN(CCCC(c3ccc(F)cc3)c3ccc(F)cc3)CC2)c1C` [Beispiel 16], for which the inhibition at 240 µg/mL was 59%.
As for `Cc1cc(Cl)ccc1OCCN1CCN(CCCC(c2ccc(F)cc2)c2ccc(F)cc2)CC1` [Beispiel 17], the inhibition at 240 µg/mL is 86% and the IC50 was found to be 500 nM.
Take `COc1cc(C)ccc1OCCN1CCN(CCCC(c2ccc(F)cc2)c2ccc(F)cc2)CC1` [Beispiel 22]: the inhibition at 240 µg/mL came to 81%.
On to `Fc1ccc(C(CCCN2CCN(CCOc3cccc4c3CCCC4)CC2)c2ccc(F)cc2)cc1` [Beispiel 26], for which the inhibition at 240 µg/mL is 97% and the IC50 worked out at 1000 nM.
On to `COc1cccc2c1OC(CN1CCN(CCCC(c3ccc(F)cc3)c3ccc(F)cc3)CC1)CC2` (centres unmarked) [Beispiel 27], for which the inhibition at 240 µg/mL stood at 78%.
Still for that read-out and setting: for `Cc1ccc(N(C)C)cc1OCCN1CCN(CCCC(c2ccc(F)cc2)c2ccc(F)cc2)CC1` [Beispiel 30] the value was 81%; for `Cc1ccc(N)cc1OCCN1CCN(CCCC(c2ccc(F)cc2)c2ccc(F)cc2)CC1` [Beispiel 32], 67%.
As for `COC(=O)c1ccc(OCCN2CCN(CCCC(c3ccc(F)cc3)c3ccc(F)cc3)CC2)c(N(C)C(C)=O)c1` [Beispiel 33], the inhibition at 240 µg/mL is 56%.
With `CCN(C)c1cc(CO)ccc1OCCN1CCN(CCCC(c2ccc(F)cc2)c2ccc(F)cc2)CC1` [Beispiel 34], the inhibition at 240 µg/mL came to 99% and the IC50 is 170 nM.
For the compound `Cc1cc(Cl)ccc1OC(C)CN1CCN(CCCC(c2ccc(F)cc2)c2ccc(F)cc2)CC1` (centres unmarked) [Beispiel 39], the inhibition at 240 µg/mL came to 77% and the IC50 turned out to be 1000 nM.
Taken in the same sequence, the figures for `CC(CN1CCN(CCCC(c2ccc(F)cc2)c2ccc(F)cc2)CC1)Oc1cccc2c1CCCC2` (centres unmarked) [Beispiel 41] were 95% and 2100 nM.
With `COc1cccc2c1OC(CN1CCN(CCCC(c3ccc(F)cc3)c3ccc(F)cc3)C[C@@H]1C)CC2` (some centres unmarked) [Beispiel 44], the inhibition at 240 µg/mL turned out to be 99% and the IC50 worked out at 26000 nM.
